Reference: patent publication US20260215432A1, “ANTIMICROBIAL CONJUGATED OLIGOELECTROLYTES AND METHODS THEREOF” (National University of Singapore, priority 2023, published 2026)

Legend:
A. baumanii (ATCC 17978) = test: MIC, broth microdilution in CA-MHB; assay type: cell-based
Description: (§1) Antimicrobial activity was screened against a range of pathogens made up of clinically relevant ESKAPE pathogens by determination of the minimum inhibitory concentration (MIC) in cation-adjusted Mueller-Hinton broth (CA-MHB).
(§2) Minimum inhibitory concentrations of COEs were determined through a broth microdilution method in accordance with the Clinical and Laboratory Standards Institute (CLSI) guidelines M07-A10. A single bacterial colony was isolated from an overnight culture and grown to mid-log phase (OD600~0.8). Compounds were prepared as a stock solution in DMSO and diluted in a sterile flat-bottom 96-well plate in CA-MHB. Subsequent concentrations were prepared by two-fold dilution of the initial solution. An equivalent volume of bacteria was added to the compound to a final concentration of 5×10^5 cfu/mL. Plates were incubated at 37° C. for 16-18 hours, and read at OD600 using a microplate reader (TECAN Spark®). […] MIC values were determined for each compound in triplicate.

[1] = system: E. coli. K12 (ATCC 10798); test: MIC, broth microdilution in CA-MHB; assay type: cell-based
Description: as §1, §2

E. facium (ATCC 19434) = test: MIC, broth microdilution in CA-MHB; assay type: cell-based; settings: CA-MHB
Description: as §1, §2

[2] = system: E. faecalis OG1RF (ATCC 47077); test: MIC, broth microdilution in CA-MHB; assay type: cell-based
Description: as §1, §2

[3] = system: K. pneumoniae (carbapenem-resistant Enterobacterales) (ATCC BAA1705); test: MIC, broth microdilution in CA-MHB; assay type: cell-based
Description: as §1, §2

[4] = system: Methicillin-resistant S. aureus (ATCC BAA1717); test: MIC, broth microdilution in CA-MHB; assay type: cell-based
Description: as §1, §2

[5] = system: P. aeruginosa (ATCC47085); test: MIC, broth microdilution in CA-MHB; assay type: cell-based
Description: as §1, §2

S. aureus (ATCC 29213) = test: MIC, broth microdilution in CA-MHB; assay type: cell-based
Description: as §1, §2

SA = test: MIC in physiological-mimicking environments (MHB); assay type: cell-based, S. aureus
Source text: The complexities of the physiological environment often influence drug activity, particularly when cations in solution are implicated in their oligomerization-dependent mechanisms of action, such as for daptomycin. Binding of free drug to plasma proteins effectively reduces the available free concentration of the drug capable of killing bacteria, resulting in lower observable activity. We tested MIC values of DM4P and DM6P in the presence of human serum albumin (40 g L^−1) and high salt concentrations (Table 4). Under these conditions, the antimicrobial activity was minimally affected by these environmental factors, with MICs remaining within a 2-fold level.

[6] = system: Pseudomonas aeruginosa (PAO1, ATCC 47085); test: Time-kill kinetics; assay type: cell-based; settings: P. aeruginosa, treatment at or above the MBC
Description: (§3) Separately, MRSA and P. aeruginosa cultures were challenged with DM6P at varying concentrations and aliquots were taken at specific intervals to quantify the bacteria remaining.
(§4) The time-kill kinetics was determined against Pseudomonas aeruginosa (PAO1, ATCC 47085) and methicillin-resistant Staphylococcus aureus (ATCC BAA-1717). Bacteria tested were subcultured in Cation-Adjusted Mueller Hinton II Broth (CAMHB, BD Biosciences) from overnight cultures to mid-log phase at 37° C. with shaking at 200 rpm and diluted to an OD600 value of 0.2 and aliquoted into 2 mL fractions in culture tubes. The resulting bacterial suspension was then challenged with DM6P at varying concentrations and incubated at 37° C. with shaking at 200 rpm. At regular intervals, 100 μL aliquots of each sample were diluted with 10-fold dilution in PBS and plated on TSB agar plates with 100 μL inoculation. The colonies were incubated at 37° C. overnight and counted to determine the cfu/mL of each sample. Experiments were performed in triplicate.

[7] = system: methicillin-resistant Staphylococcus aureus (ATCC BAA-1717); test: Time-kill kinetics; assay type: cell-based; settings: MRSA, within the first two hours, concentrations above the MBC value of 4 μg mL^−1
Description: as §3, §4

MRSA = test: Membrane depolarization assay (DiSC3(5)); assay type: cell-based, S. aureus; settings: DiSC3(5)-encapsulated MRSA cells
Source text: (§5) The interactions of DM6P with various bacterial cell membranes were first investigated through spectrometric methods. In normal cells, compartmentalization of the intracellular space by the lipid bilayer enables the maintenance of a transmembrane potential, which is necessary for regular cell division and energy production. The membrane-potential sensitive dye 3,3′-dipropylthiadicarbocyanine iodide (DiSC3(5)) accumulates within the membranes of healthy, polarized cells where its fluorescence is self-quenched. Depolarization of the membrane necessary to maintain this gradient causes the release of this dye, resulting in an increase in fluorescence intensity. […]
(§6) Determination of the extent of depolarization of bacterial cell membranes was carried out using a voltage sensitive dye DiSC3(5) (ThermoFisher, USA). The dye is able to accumulate within polarized healthy cell membranes with resulting quenched fluorescence. When the membrane is depolarized, subsequent ion permeabilization releases the dye from the membrane and gives rise to enhanced fluorescence intensity.^3 The assay was performed according to a modified protocol reported previously. […] The plate was incubated in the dark for 30 minutes, with the signal measured every 5 minutes until a stable baseline was observed. COEs were then added at varying concentrations and the fluorescence intensity was measured over time at 37° C. […]

PAO1 = test: Membrane depolarization assay (DiSC3(5)); assay type: cell-based, P. aeruginosa; settings: DiSC3(5)-encapsulated PAO1 cells
Source text: as §5, §6

COc1cc(/C=C/c2ccc(OCCCCCC[P+](c3ccccc3)(c3ccccc3)c3ccccc3)c(OC)c2)ccc1OCCCCCC[P+](c1ccccc1)(c1ccccc1)c1ccccc1.[I-].[I-] [DM6P]
eradication of the cells: killing at or above the MBC value [6]
2 µg/mL: MIC EC ([1]; CA-MHB) | MIC ([1]; strain EC, Table 5)
dose-dependent depolarization: depolarization of the bacterial membrane (MRSA) | depolarization of the bacterial membrane (PAO1)
4 µg/mL: MIC PA ([5]; CA-MHB) | MIC ([5]; strain PA, Table 5)
1 µg/mL: MIC FAC (E. facium (ATCC 19434)) | MIC FAE ([2]; CA-MHB) | MIC ([2]; strain EF, Table 5) | MIC MRSA ([4]; CA-MHB) | MIC ([4]; strain MRSA, Table 5) | MIC ([4]; towards MRSA, Table 3) | MIC SA (S. aureus (ATCC 29213)) | MIC CaCl2 (SA; CaCl2 1 mM) | MIC MgCl2 (SA; MgCl2 1.25mM) | MIC NaCl (SA; NaCl 300 mM) | MIC HSA (SA; human serum albumin 40 g L^−1) | MIC — (SA; no additive)
8 µg/mL: MIC AB (A. baumanii (ATCC 17978); CA-MHB) | MIC (A. baumanii (ATCC 17978); strain AB, Table 5) | MIC KP ([3]; CA-MHB) | MIC ([3]; strain CRKP, Table 5)
< 100 cfu mL^−1: bacteria remaining (nearly complete killing) [7]
